Results published in the supplement of paper PMC10307832.

What was measured:
Assay in all cases: relative viability (nuclei count vs DMSO), 5 days (fraction); higher = more cells survive
Vorinostat + Bortezomib = compound: O=C(CCCCCCC(=O)Nc1ccccc1)NO [Vorinostat] + CC(C)C[C@H](NC(=O)[C@H](Cc1ccccc1)NC(=O)c1cnccn1)B(O)O [Bortezomib] (partner 0.002 µM)
Procedure, shortened: (§1)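 For relative viability, nuclei counts in treated wells were divided by those in vehicle wells. Lung cancer cell lines had been pin-tool dosed in 1536-well plates the day after seeding and cultured for 5 days, then fixed and stained in one step (final 0.05% Triton X-100, 1% formaldehyde, 1 ug/ml Hoechst) and imaged at 4×. Doses were one drug alone or a fixed anchor-drug dose plus five library-drug doses (not always all listed) in √10 steps, and values are duplicate-plate medians.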

Vorinostat + Alpelisib = compound: O=C(CCCCCCC(=O)Nc1ccccc1)NO [Vorinostat] + Cc1nc(NC(=O)N2CCC[C@H]2C(N)=O)sc1-c1ccnc(C(C)(C)C(F)(F)F)c1 [Alpelisib] (partner 2 µM)
Procedure, shortened: as §1

Vorinostat + Decitabine = compound: O=C(CCCCCCC(=O)Nc1ccccc1)NO [Vorinostat] + Nc1ncn([C@H]2C[C@H](O)[C@@H](CO)O2)c(=O)n1 [Decitabine] (partner 2 µM)
Procedure, shortened: as §1

Vorinostat + Palbociclib = compound: O=C(CCCCCCC(=O)Nc1ccccc1)NO [Vorinostat] + CC(=O)c1c(C)c2cnc(Nc3ccc(N4CCNCC4)cn3)nc2n(C2CCCC2)c1=O [Palbociclib] (partner 0.5 µM)
Procedure, shortened: as §1

Vorinostat + OSI-027 = compound: O=C(CCCCCCC(=O)Nc1ccccc1)NO [Vorinostat] + COc1cccc2cc(-c3nc([C@H]4CC[C@H](C(=O)O)CC4)n4ncnc(N)c34)[nH]c12 [OSI-027] (partner 0.5 µM)
Procedure, shortened: as §1

| Cell Line | relative viability (Vorinostat + Bortezomib; first compound 0.253 µM) | relative viability (Vorinostat + Bortezomib; first compound 0.8 µM) | relative viability (Vorinostat + Bortezomib; first compound 2.53 µM) | relative viability (Vorinostat + Bortezomib; first compound 8 µM) | relative viability (Vorinostat + Alpelisib; first compound 0.253 µM) | relative viability (Vorinostat + Alpelisib; first compound 0.8 µM) | relative viability (Vorinostat + Alpelisib; first compound 2.53 µM) | relative viability (Vorinostat + Alpelisib; first compound 8 µM) | relative viability (Vorinostat + Decitabine; first compound 0.253 µM) | relative viability (Vorinostat + Decitabine; first compound 0.8 µM) | relative viability (Vorinostat + Decitabine; first compound 2.53 µM) | relative viability (Vorinostat + Decitabine; first compound 8 µM) | relative viability (Vorinostat + Palbociclib; first compound 0.253 µM) | relative viability (Vorinostat + Palbociclib; first compound 0.8 µM) | relative viability (Vorinostat + Palbociclib; first compound 2.53 µM) | relative viability (Vorinostat + Palbociclib; first compound 8 µM) | relative viability (Vorinostat + OSI-027; first compound 0.253 µM) | relative viability (Vorinostat + OSI-027; first compound 0.8 µM) | relative viability (Vorinostat + OSI-027; first compound 2.53 µM) | relative viability (Vorinostat + OSI-027; first compound 8 µM) |
| --- | --- | --- | --- | --- | --- | --- | --- | --- | --- | --- | --- | --- | --- | --- | --- | --- | --- | --- | --- | --- |
| NCI-H1703 | 0.262 | 0.23 | 0.156 | 0.133 | 0.469 | 0.525 | 0.594 | 0.156 |  |  |  |  |  |  |  |  |  |  |  |  |
| A549 |  |  |  |  | 0.861 | 0.802 | 0.104 | 0.0282 | 0.224 | 0.302 | 0.256 | 0.0174 |  |  |  |  |  |  |  |  |
| HCC-366 | 1.09 | 0.872 | 0.0664 | 0.0198 | 0.456 | 0.36 | 0.0363 | 0.0122 | 0.383 | 0.244 | 0.0518 | 0.0306 | 0.345 | 0.182 | 0.0412 | 0.0283 | 0.979 | 0.432 | 0.146 | 0.0279 |
| COR-L23 | 0.985 | 0.683 | 0.131 | 0.0488 | 0.834 | 0.372 | 0.0994 | 0.0715 | 0.373 | 0.301 | 0.136 | 0.0929 | 0.281 | 0.19 | 0.0948 | 0.0728 | 0.842 | 0.396 | 0.151 | 0.0835 |
| PC-14 | 0.913 | 0.847 | 0.102 | 0.073 | 1 | 0.903 | 0.263 | 0.0674 | 0.227 | 0.19 | 0.0705 | 0.06 | 0.56 | 0.351 | 0.0802 | 0.0377 | 1.13 | 0.832 | 0.0624 | 0.0451 |
| SW 1573 | 1.11 | 1.1 | 0.565 | 0.0796 | 1.03 | 0.901 | 0.587 | 0.147 | 0.514 | 0.355 | 0.14 | 0.0457 | 0.433 | 0.305 | 0.212 | 0.0703 | 1.1 | 0.633 | 0.183 | 0.051 |
| LK-2 |  |  |  |  | 1.07 | 0.847 | 0.234 | 0.125 | 0.267 | 0.201 | 0.089 | 0.064 | 0.724 | 0.585 | 0.104 | 0.0605 | 0.196 | 0.169 | 0.117 | 0.103 |
| RERF-LC-KJ | 1.2 | 1.04 | 0.423 | 0.286 | 0.862 | 0.898 | 0.457 | 0.234 | 0.79 | 0.614 | 0.184 | 0.254 | 1.09 | 0.929 | 0.333 | 0.211 | 0.56 | 0.52 | 0.238 | 0.256 |
| NCI-H2347 | 0.971 | 0.843 | 0.561 | 0.199 | 1.11 | 1.08 | 0.526 | 0.221 | 0.644 | 0.62 | 0.508 | 0.24 | 0.405 | 0.371 | 0.362 | 0.242 | 0.363 | 0.382 | 0.149 | 0.164 |
| NCI-H1792 | 1.01 | 0.902 | 0.637 | 0.0799 | 0.742 | 0.55 | 0.207 | 0.0419 | 0.414 | 0.413 | 0.163 | 0.0341 | 0.725 | 0.57 | 0.485 | 0.175 | 0.776 | 0.676 | 0.511 | 0.1 |
| HOP-62 | 1.25 | 0.434 | 0.328 | 0.0711 | 1.25 | 0.947 | 0.49 | 0.0804 | 0.17 | 0.209 | 0.169 | 0.0871 | 0.492 | 0.409 | 0.177 | 0.0765 | 0.985 | 0.649 | 0.378 | 0.0983 |
| NCI-H1650 | 0.22 | 0.178 | 0.179 | 0.142 |  |  |  |  | 0.351 | 0.359 | 0.27 | 0.135 | 0.281 | 0.234 | 0.164 | 0.0922 | 0.581 | 0.36 | 0.167 | 0.145 |
| NCI-H1666 | 0.798 | 0.461 | 0.251 | 0.189 | 0.962 | 0.586 | 0.245 | 0.156 | 0.703 | 0.654 | 0.548 | 0.329 | 0.634 | 0.576 | 0.523 | 0.511 | 0.772 | 0.678 | 0.383 | 0.335 |
| HCC-78 | 0.495 | 0.265 | 0.119 | 0.126 | 0.346 | 0.208 | 0.114 | 0.099 | 0.672 | 0.634 | 0.355 | 0.236 | 0.467 | 0.518 | 0.438 | 0.344 | 0.346 | 0.32 | 0.224 | 0.234 |
| HCC-44 | 0.886 | 0.883 | 0.514 | 0.109 | 0.896 | 0.587 | 0.186 | 0.0876 | 1.03 | 0.896 | 0.737 | 0.413 | 0.989 | 0.969 | 0.812 | 0.301 | 0.611 | 0.281 | 0.103 | 0.254 |
